Laboratory results as given in US12624018B1, “Inhibitors of RIPK2 and medical uses thereof” (Odyssey Therapeutics, Inc., priority 2022, dated 2026).

The compounds below were run against T1, RIPK2 enzyme (Homo sapiens, UniProt O43353) (assay: RIPK2 inhibition (ADP-Glo Kinase Assay)). Conditions: RIPK2 5 nM, ATP 150 μM, MBP substrate, read-out: RIPK2 IC50.
T1 construct: purchased Carna 09-128
Format: biochemical
Summary of the method: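 Human RIPK2 (5 nM) preincubated with compound 30 min at room temperature in 50 mM HEPES pH 7.5, 10 mM MgCl2, 2 mM DTT, 1 mM EGTA, 0.01% Brij-35, 0.05% BSA; native swine MBP as substrate. ADP formed quantified by ADP-Glo luminescence; percent inhibition relative to DMSO and no-enzyme controls.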

T1 sequence (O43353 1-299 limits assumed): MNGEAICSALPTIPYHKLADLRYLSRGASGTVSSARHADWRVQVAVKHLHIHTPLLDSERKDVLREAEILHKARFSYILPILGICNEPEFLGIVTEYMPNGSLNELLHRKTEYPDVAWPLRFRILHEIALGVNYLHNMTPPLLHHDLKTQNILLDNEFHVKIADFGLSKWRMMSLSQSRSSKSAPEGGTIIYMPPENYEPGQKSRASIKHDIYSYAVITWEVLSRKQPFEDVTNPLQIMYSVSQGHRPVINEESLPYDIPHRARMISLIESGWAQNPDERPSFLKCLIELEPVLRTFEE

Row | IC50 [nM] | SMILES
1 | < 2.5 | Cc1c(Oc2ccnc3ccc(C(=O)N4CCCC4)cc23)ccc(CC(=O)Nc2cnn(C(C)(C)C)c2)c1F [Compound 350, N-(1-(tert-butyl)-1H-pyrazol-4-yl)-2-(2-fluoro-3-methyl-4-((6-(pyrrolidine-1-carbonyl)quinolin-4-yl)oxy)phenyl) acetamide]
2 | < 2.5 | Cc1c(Oc2ccnc3ccc(C(=O)N4CCOCC4)cc23)ccc(CC(=O)Nc2cnn(C(C)(C)C)c2)c1F [Compound 355, N-(1-(tert-butyl)-1H-pyrazol-4-yl)-2-(2-fluoro-3-methyl-4-((6-(morpholine-4-carbonyl)quinolin-4-yl)oxy)phenyl) acetamide]
3 | < 2.5 | Cc1c(Oc2ccnc3ccc(C(=O)N4CCNCC4)cc23)ccc(CC(=O)Nc2cnn(C(C)(C)C)c2)c1F [Compound 356, N-(1-(tert-butyl)-1H-pyrazol-4-yl)-2-(2-fluoro-3-methyl-4-((6-(piperazine-1-carbonyl)quinolin-4-yl)oxy)phenyl) acetamide]
4 | < 2.5 | Cc1c(Oc2ccnc3ccc(C(=O)N4CCC(O)CC4)cc23)ccc(CC(=O)Nc2cnn(C(C)(C)C)c2)c1F [Compound 357, N-(1-(tert-butyl)-1H-pyrazol-4-yl)-2-(2-fluoro-4-((6-(4-hydroxy-piperidine-1-carbonyl)quinolin-4-yl)oxy)-3-methyl-phenyl) acetamide]
5 | < 2.5 | Cc1cc(CC(=O)Nc2cnn(C(C)(C)C)c2)c(F)cc1Oc1ccnc2ccc(C(=O)O)cc12 [Compound 358, 4-(4-(2-((1-(tert-butyl)-1H-pyrazol-4-yl)amino)-2-oxoethyl)-5-fluoro-2-methyl-phenoxy) quinoline-6-carboxylic acid]
6 | < 2.5 | Cc1cc(CC(=O)Nc2cnn(C(C)(C)C)c2)c(F)cc1Oc1ccnc2ccc(C(=O)N(C)C)cc12 [Compound 361, 4-(4-(2-((1-(tert-butyl)-1H-pyrazol-4-yl)amino)-2-oxoethyl)-5-fluoro-2-methyl-phenoxy)-N,N-dimethyl-quinoline-6-carboxamide]
7 | < 2.5 | Cc1cc(CC(=O)Nc2cnn(C(C)(C)C)c2)c(F)cc1Oc1ccnc2ccc(C(=O)NCC(F)(F)F)cc12 [Compound 362, 4-(4-(2-((1-(tert-butyl)-1H-pyrazol-4-yl)amino)-2-oxoethyl)-5-fluoro-2-methyl-phenoxy)-N-(2,2,2-trifluoroethyl) quinoline-6-carboxamide]
8 | < 2.5 | CCNC(=O)c1ccc2nccc(Oc3cc(F)c(CC(=O)Nc4cnn(C(C)(C)C)c4)cc3C)c2c1 [Compound 363, 4-(4-(2-((1-(tert-butyl)-1H-pyrazol-4-yl)amino)-2-oxoethyl)-5-fluoro-2-methyl-phenoxy)-N-ethyl-quinoline-6-carboxamide]
9 | < 2.5 | Cc1cc(CC(=O)Nc2cnn(C(C)(C)C)c2)c(F)cc1Oc1ccnc2ccc(C(=O)NCCO)cc12 [Compound 364, 4-(4-(2-((1-(tert-butyl)-1H-pyrazol-4-yl)amino)-2-oxoethyl)-5-fluoro-2-methyl-phenoxy)-N-(2-hydroxy-ethyl) quinoline-6-carboxamide]
10 | < 2.5 | Cc1cc(CC(=O)Nc2cnn(C(C)(C)C)c2)c(F)cc1Oc1ccnc2ccc(C(=O)N(C)CCO)cc12 [Compound 365, 4-(4-(2-((1-(tert-butyl)-1H-pyrazol-4-yl)amino)-2-oxoethyl)-5-fluoro-2-methyl-phenoxy)-N-(2-hydroxy-ethyl)-N-methyl-quinoline-6-carboxamide]
11 | < 2.5 | Cc1cc(CC(=O)Nc2cnn(C(C)(C)C)c2)c(F)cc1Oc1ccnc2ccc(C(=O)N(CCO)CCO)cc12 [Compound 366, 4-(4-(2-((1-(tert-butyl)-1H-pyrazol-4-yl)amino)-2-oxoethyl)-5-fluoro-2-methyl-phenoxy)-N,N-bis(2-hydroxyethyl) quinoline-6-carboxamide]
12 | < 2.5 | COCCNC(=O)c1ccc2nccc(Oc3cc(F)c(CC(=O)Nc4cnn(C(C)(C)C)c4)cc3C)c2c1 [Compound 367, 4-(4-(2-((1-(tert-butyl)-1H-pyrazol-4-yl)amino)-2-oxoethyl)-5-fluoro-2-methyl-phenoxy)-N-(2-methoxy-ethyl) quinoline-6-carboxamide]
